The source of these data is patent US8450278B2, “MUC18 targeting peptides” (Board of Regents, The University of Texas System, priority 2008, dated 2013).

Entries after “also recorded” stand apart in the source; their conditions may differ.

The test system of this assay is B16 melanoma cells. Put plainly: Phage binding assay on B16 melanoma cells pre and post co-culture with B-1 lymphocytes. It is filed as cell-based, mouse. The text has this: The inventors used a random phage library displaying the insert CX7C(C, cysteine; X, any residue) for selection of peptides binding to melanoma cells post co-culture with B-1 lymphocytes (Giordano et al., 2001). As a pre-clearing step, 10^6 B16 cells without exposure to B-1 lymphocytes were detached, washed and resuspended in RPMI containing 2% BSA plus 10^9 transducing units (TU) of unselected phage library. Cells and phage were transferred to the top of a non-miscible organic lower phase (dibutyl phthalate: cyclohexane, 9:1 [v:v]) and centrifuged at 10,000 g for 10 min. The unbound phage population remaining in the aqueous upper phase (pre-cleared library) was collected into a fresh eppendorf tube and incubated with 10^6 B16 cells isolated post co-culture with B-1 lymphocytes. Phage in the organic lower phase were recovered from the cell pellet by bacterial host infection (Pasqualini et al., 2000; Cardo-Vila et al., 2003; Marchio et al., 2004; Marchio et al., 2004; Kolonin et al., 2004; Arap et al, 2004; Hajitou et al., 2006).
For phage binding assays to B16 melanoma, 10^6 cells pre and post co-culture with B-1 lymphocytes were incubated with each specific phage clone (10^9 TU) or negative controls. Melanoma cells and phage were centrifuged through the organic phase and the cell-bound phage clones were recovered by bacterial infection (Giordano et al., 2001).

CLFMRLAWC [SEQ ID NO:1]: the “phage/peptide binding to melanoma cells (in words)” value was “marked enrichment in phage binding; also recorded: selectively bind to cancerous cells”.
